Test results: patent US6534077B2, “Organosiloxane containing modified groups in agricultural compositions” (Crompton Corporation, priority 2000, dated 2003)

Test system: Barnyardgrass (Echinochloa crus-galli)
Experiment: Effect of adjuvant on glyphosate-IPA efficacy on barnyardgrass with simulated rainfall
Type: in vivo
Conditions: 0.75 wt % glyphosate-IPA without adjuvant, rainfall 2 h after application
Experimental: Barnyardgrass (Echinochloa crus-galli) 10 cm in height were treated with 0.75 wt % (a.i.) glyphosate, isopropylamine salt (Monsanto), either alone, or plus a spray adjuvant (0.05 and 0.1 wt % respectively). The spray was applied at 100 L/ha using a T-Jet 8002E nozzle. The plants were subjected to simulated rainfall (2.5 cm), 2 h after herbicide application, to determine the rainfastening ability of the adjuvants. Plants were evaluated at week 1 and 2 weeks after treatment, by visual observation, relative to the untreated check. A score of 0 means no plant injury, while a score of 100 indicates total control (burndown, with no regrowth).

With `CC(C)N.O=C(O)CNCP(=O)(O)O` [glyphosate-IPA, glyphosate, isopropylamine salt] the “Percent Control 1 WAT” value (1 week after treatment) was 7.5d % and the “Percent Control 2 WAT” value (2 weeks after treatment) was 18.75c %.
